# Measurements reported in patent publication US20060088897A1, “Modulators” (priority 2003, published 2006).
# Experiments:
# Type in all cases: cell-based
# N1E-115 cells [1] = test: Microinjection of peptides into partially serum starved N1E-115 cells, phalloidin staining and confocal microscopy of cell morphology; details: FIG. 8A
# Description: (§1) Cells are starved for 2-3 h and then either injected with peptides (10 μg/ml) or exposed to peptides with bioporter reagent. Cells are incubated for a further 2 h before being stained with phalloiden and examined by confocal microscopy (as described in the materials and methods section). (A) The upper cells is injected with αP1 (a), or all cells injected with αP1*(b), or exposed to αP2 with bioporter reagent (c). […] Results are expressed as means+/−SEM of 3 experiments (n=333-426 cells). […] (D) Cells are exposed to bioporter reagent with αP2 and after 6 h double stained with αPAK and vinculin antibodies; (a) Vinculin/αPAK, (b) Vinculin and (c) αPAK. Bar=10 μM. Control bars are with IgG with bioporter/microinjection.
# (§2) Cells are starved for 2-3 h and then injected with peptides. Cells are then incubated for 2 h before being stained with phalloiden and examined by confocal microscopy (as described in the materials and methods section). (A) Cells are injected with IgG (a), with αP2 (b), with βP2 (c) and γP2 (d). Bar=10 μM. (B) Cells are exposed to bioporter with peptides and presence of neurites, pronounced filopodia and pronounced lamellipodia/ruffles scored (definitions as in FIG. 7). (C) Cells are either exposed to bioporter reagent coated peptides (αP2 and βP2) and then IGF or serum starvation used to activate cells. For γP2 cells are injected with peptide and stimulated with serum. Filopodia and lamellipodia are scored by using time-lapse phase contrast microscopy. +/−SEM of 3 experiments (n=900). Control peptide is taken from the kinase domain and common to the three PAK isoforms.
# Cells are plated out at 1.0×10^5 cells in 1 ml in a 35 mm dish containing 2 laminin coated coverslips. The coverslips are first marked with a grid using a fine permanent marker and then coated with laminin and incubated overnight in DMEM, 10% FCS, 1% AB/AM. The media is replaced with serum free media (DMEM, 1% AB/AM) and the cells starved for 1 hour so that they flattened and are easier to inject. The peptides are injected at 10 μg/ml in PBS, Rat IgG at 1 mg/ml is added to act as a marker for injected cells.
# The cells are injected using an Eppendorf microinjection apparatus on an Axioplan inverted microscope equipped with a heated stage maintained at 37° C. and a 5% CO2 chamber. Humidity is maintained by a dish of sterile water inside the CO2 chamber. Cells in a grid square are injected and positive injection checked visually at the time of injection or after fixation and staining for the injected marker. After injection the cells are returned to the incubator for a further 2 hours. Giving a total time without serum of 4 hours.
# The only difference between these two peptides being that the latter peptide is phosphorylated on serine and this modification prevents it from binding Nck (Zhao et al., 1998). To investigate the effects of peptides we first serum starve the cells for 2-4 h to activate Cdc42Hs and Rac.
# N1E-115 cells [2] = test: Peptide delivery with BioPorter reagent, scoring of neurites, filopodia and lamellipodia/ruffles
# Description: as §1, §2
# BioPorter regent is supplied as a dried powder and must be dissolved in a solvent before use. To each tube of BioPorter reagent 250 μl of methanol is added and the powder is re-suspended by vortexing for 10-20 seconds. 10 μl of the mix is transferred into new eppendorf tubes; the methanol is allowed to evaporate for 2 hours in a laminar flow hood. The dried reagent is stored at −20° C.
# Cells are plated out at 1.5×10^5 cells in a 35 mm dish containing 2 laminin-coated coverslips and incubated overnight. […]
# N1E-115 cells [3] = test: Cell guidance assay at Laminin/CSPG boundary (axonal guidance)
# Description: Effect of PAK peptides on neurite morphology. Cells are exposed to control peptide, αP 1*, αP2, βP2, or γP2 and neurite morphology assessed. (B) Cells are plated on coverslips that been treated to create a Laminin/CSGP boundary. After 6 h cells are examined for their ability to project neurites that crossed the substrate boundary. Cells exposed to bioporter coated peptides, (a) αP2, (b) βP2, and (c) γP2. […] Results are means+/−SEM (n=161-263). (C) Cells are exposed to peptides and after 6 h are scored for their ability to cross boundary from Laminin to CSPG.
# The coverslips are washed and sterilised and then coated in one of the following ways.
# A second layer of laminin is applied as a drop mixed with 1 μg/ml TRITC label. Coverslips are left for 1 hour at RT and then rinsed twice with sterile water before allowing to dry before use. (iii) Attractive/repulsive boundary. Slides are coated with CSPG 5 μg/ml for 1 hour at 37° C. in a humid chamber then rinsed once in sterile H2O and allowed to air dry before the drop of laminin at 10 μg/ml is applied to the centre of the coverslip and left for 1 hour at RT before rinsing twice in sterile water and allowing to dry before use. This coating is also done in reverse with the laminin applied first and then the tenascin or the CSPG applied second.
# The cells are then seeded onto the prepared coverslips at 2×10^5 cells in 1 ml in a 35 mm petri dish, in DMEM, 10% FCS, and 1% AB/AM. Cells are allowed to attach overnight. The media is then removed and the coverslips rinsed in serum free media and incubated overnight (18 h) in serum free media. After the starvation the cells are fixed and stained to show the morphology of the cells at the boundary. Only neurites expressing neurofilamant are scored.
# After 5 minutes, the cells are washed once with serum free DMEM media and then 1 ml of serum free DMEM is added to the tube containing the peptide and BioPorter mix it is vortexed gently before being added to the cells. The cells are incubated for 4 hours at 37° C. After the 4 hour incubation the cells are then incubated for a further 2 hours in 5% FCS DMEM or for cells undergoing a substrate guidance assay the 2 hour incubation is in serum free DMEM. The cells are fixed and stained.
# Neurofilament positive neurites are scored for how they respond to Laminin/CSPG boundary. […] However, neurites do have distinct morphologies (FIG. 9A). Thus α, β and γ PAK are not essential for neurite outgrowth.
# N1E-115 cells [4] = test: Double staining of peptide treated cells with vinculin and αPAK antibodies (focal complexes); details: FIG. 7D
# Description: as §1
# For in situ analysis primary/secondary antibodies are used at 1:100 dilution. PAK antibodies, all from Santa-Cruz, are as follows; αPAK N-20 (raised to rat amino acids 2-21), αPAK C-19 (raised to rat amino acids 525-544), βPAK (raised to mouse amino acids 2-20), γPAK (raised to human amino acids 2-20) and γPAK (raised to human amino acids 2-20). Vinculin, paxillin, phosphotyrosine are from Sigma. Integrin antibodies β1-integrin and α6-integrin a gift from A. Sonneberg, NCI, Netherlands. Bac1 cells are seeded onto coverslips and then grown for 24 h before the media is replaced with either CSF free, serum free, or CSF/serum free. […]
# N1E-115 cells [5] = test: Axonal guidance towards IGF (preliminary experiments); details: unpublished data
# Excerpt: In preliminary experiments we have also examined the effect of the PAK peptides on axonal guidance towards IGF in N1E-115 cells.
sequence,measurement,setting,value
SNNGLDIQDKPPAPPMRNTS [αP2],"effect on formation of lamellipodia, filopodia or neurites concluded from microinjection",N1E-115 cells [1],synergise with both Cdc42 and Rac to produce neurites
same,neurite phenotype compared with αP1,N1E-115 cells [2]; FIG. 7B,neurites that are thinner and longer
same,percentage of cells possessing neurites compared with αP1,N1E-115 cells [2]; FIG. 7B,higher
same,optimal peptide concentration for the phenotypic changes,"N1E-115 cells [2]; dosage dependent effect, FIG. 7C",10 µg/mL
same,ability to detect the Laminin/CSPG boundary,N1E-115 cells [3]; FIG. 9C,not affected
same,neurite morphology,"N1E-115 cells [3]; serum starved cells, FIG. 9A",indistinguishable from control cells
same,αPAK containing focal complexes (FC's) after peptide treatment,N1E-115 cells [4],leads to loss of FC's
same,effect on axonal guidance towards IGF,N1E-115 cells [5],do not affect guidance
